Source: patent publication US9193898B2, “Environmentally friendly dispersion system used in the preparation of inverse emulsion polymers” (priority 2011, dated 2015)

Columns and labels:
[1] = test system: most sensitive marine species (typically Skeletonema); assay: Toxicity to the most sensitive marine species (EC50); settings: environmental profile of dispersion system components
Description: (§1) With this in mind, it was desired to create an environmentally friendly oil phase system useful for making inverse emulsion polymers. The adopted definition of environmentally friendly are the rules that govern offshore chemical use in the North Sea. The environmental impact of a chemical is defined by three tests: bioaccumulation, biodegradation and toxicity. In order for a chemical to be used without restriction offshore in the North Sea it must satisfy two of the following three criteria: • 1. Biodegradation must be greater than 60%, if less than 20% it is automatically marked for substitution. • 2. Bioaccumulation as measured by octanol/water partitioning coefficient (log Po/w) must be below 3 (or have a molecular weight>700). • 3. Toxicity to the most sensitive marine species (typically Skeletonema) must be greater than LC50 or EC50 of 10 ppm.

[2] = Bioaccumulation as octanol/water partitioning coefficient (log Po/w); format: physicochemical
Description: as §1

[3] = Description: as §1, with “ppm. […]” for “ppm.”
An embodiment of the present invention is an environmentally friendly oil phase system comprising an organic solvent and lecithin. The immiscible organic solvent can be a hydrocarbon solvent that is aliphatic or at least one oil derived from one or more natural products, and are at least 60% biodegradable after 28 days as determined by the Organization for Economic Cooperation and Development, Procedure OECD 306, its text incorporated by reference. […]

[4] = cited from earlier work

Substance	Toxicity EC50 [1]	Bioaccumulation log Po/w [2]	Biodegradation, t = 28 days [3]	log P [4]
POE(4)-sorbitan monostearate	165 ppm	<3	27	
POE(5)-sorbitan monooleate	20 ppm	<3	52	
sorbitan monooleate				> 3
